Source: patent US11286288B2, “Pharmaceutical compound” (VALLAURIX PTE. LTD., priority 2015, dated 2022)
Each block holds one substance with its values, some of them ahead of it.

How the values were obtained:
Type in all cases: cell-based
[1] = test system: tyrosinase; test: Tyrosinase activity (3H-tyrosine) in human melanocyte culture 1750; conditions: Test 4, melanocytes 1750, six days treatment; concentration not given
Procedure: Compounds 1, 2, 3 and 4 were tested in various separate tests and using 2 different human melanocyte cultures, coded 1750 and 1753, that were derived from 2 different donors expressing functional MC1R. The melanocytes were plated at a density of 0.3*10^6 cells onto 60 mm dishes (triplicate dishes/group). After 48 hours, the melanocytes were treated every other day for a total of six days with different doses of each compound. Controls without compound were included in all experiments. In some experiments reference compound NDP-MSH was included. On treatment day 5, ^3H-labeled tyrosine, the substrate for tyrosinase, was added and 24 hours later, the supernatant was saved to be assayed for tyrosinase activity as described by Suzuki et al (see example 3). Duplicate samples from each were assayed, with triplicate dishes included in each group. Cell number in each dish was counted, and tyrosinase activity was expressed as dpm/10^6 cells and as % of the control. Tests results between separate tests cannot be compared due to differences in melanocyte cultures and to different passage number. Statistical analysis was carried out using ANOVA followed by Newman Kuels test.
It will be understood that this tyrosinase activation test relates to a late event after MC1R activation, compared to the earlier secondary messenger effect of the above cAMP test. As pointed out above, activity of tyrosinase requires days of treatment. Following are the results comparing the compounds in the test indicated: […]

[2] = molecular target: T1, MC1R (Homo sapiens, UniProt Q01726); test: cAMP radioimmunoassay in human melanocyte culture 1753
T1 construct: human melanocyte cultures, coded 1750 and 1753, that were derived from 2 different donors expressing functional MC1R; endogenous in cells; host or cells: primary human melanocyte cultures 1750 and 1753 (two donors)
T1 sequence (Q01726 whole entry): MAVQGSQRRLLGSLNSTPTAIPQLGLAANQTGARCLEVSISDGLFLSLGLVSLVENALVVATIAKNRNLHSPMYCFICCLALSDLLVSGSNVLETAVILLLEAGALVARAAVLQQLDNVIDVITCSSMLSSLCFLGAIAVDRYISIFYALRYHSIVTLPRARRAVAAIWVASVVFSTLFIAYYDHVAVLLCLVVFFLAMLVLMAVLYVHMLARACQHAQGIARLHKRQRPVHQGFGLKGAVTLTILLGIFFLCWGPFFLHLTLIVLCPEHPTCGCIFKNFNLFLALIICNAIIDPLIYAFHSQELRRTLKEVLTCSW
Procedure: Compounds 1, 2, 3 and 4 were tested in various separate tests and using 2 different human melanocyte cultures, coded 1750 and 1753, that were derived from 2 different donors expressing functional MC1R. The melanocytes were plated at a density of 0.3*10^6 cells/well. After 48 hours, the melanocytes were treated with the different compound concentrations for 1 hour. Controls without compound were included in all experiments. […] The reaction was stopped by addition of 50 μl N HCl and the supernatant in each well was used to measure cAMP using a radioimmunoassay as described by Suzuki 1996 (Suzuki I, Cone R D, Im S, Nordlund ii, Abdel-Malek Z: “Binding of melanotropic hormones to the MC1 receptor on human melanocytes stimulates proliferation and melanogenesis”. Endocrinology 137: 1627-1633, 1996). Duplicate samples from each well were assayed with triplicate wells included in each compound group. The results from different tests cannot be compared due to differences in melanocyte cultures and to different passage number. The mean of 6 cAMP measurements per group was expressed as % of the control group. Statistical analysis was carried out using ANOVA followed by Newman Kuels test. In some cases, unpaired t-test was used.

[3] = molecular target: T1, MC1R; test: cAMP radioimmunoassay in human melanocyte culture 1750
Procedure: Compounds 1, 2, 3 and 4 were tested in various separate tests and using 2 different human melanocyte cultures, coded 1750 and 1753, that were derived from 2 different donors expressing functional MC1R. The melanocytes were plated at a density of 0.3*10^6 cells/well. After 48 hours, the melanocytes were treated with the different compound concentrations for 1 hour. Controls without compound were included in all experiments. In some experiments reference compound NDP-MSH was included. The reaction was stopped by addition of 50 μl N HCl and the supernatant in each well was used to measure cAMP using a radioimmunoassay as described by Suzuki 1996 (Suzuki I, Cone R D, Im S, Nordlund ii, Abdel-Malek Z: “Binding of melanotropic hormones to the MC1 receptor on human melanocytes stimulates proliferation and melanogenesis”. Endocrinology 137: 1627-1633, 1996). Duplicate samples from each well were assayed with triplicate wells included in each compound group. The results from different tests cannot be compared due to differences in melanocyte cultures and to different passage number. The mean of 6 cAMP measurements per group was expressed as % of the control group. Statistical analysis was carried out using ANOVA followed by Newman Kuels test. In some cases, unpaired t-test was used.

Substance: (C2H5)3N—CH2—CO-Nle-Glu-His-D-Phe-Arg-Trp-NH2 [Compound 1]
tyrosinase activity, efficacy, % of the control [1]: 178% | cAMP, highest overall efficacy value, % of the control group ([2]; Test 2, melanocytes 1753, at 10^-7 M, 1 hour treatment, p<0.05): 431%

Substance: (C2H5)3N—CH2—CO-Nle-Glu-His-D-Phe-homoArg-Trp-NH2 [Compound 3]
cAMP, highest overall efficacy value, % of the control group ([3]; Test 1, melanocytes 1750, at 10^-7 M, 1 hour treatment, p<0.05): 327% | dose at which maximum effect on cAMP was achieved ([2]; Test 2, melanocytes 1753, p<0.05 vs control): 10^−9 M

Substance: (CH3)3N—(CH2)3—CO-Nle-Glu-His-D-Phe-Arg-Trp-NH2 [Compound 2]
tyrosinase activity, efficacy, % of the control [1]: 171% | dose at which maximum effect on cAMP (vs control) was achieved ([3]; Test 1, melanocytes 1750, 1 hour treatment, p<0.05 vs control): 10^−8 M | lowest dose showing cAMP efficacy statistically different from control ([2]; Test 2, melanocytes 1753, p<0.05): 10^−11 M

More lines, now with the values ahead:

cAMP, highest efficacy, % of the control group ([2]; Test 3, melanocytes 1753, at 10^-7 M, 1 hour treatment, p<0.05): 253%
Substance: (CH3)3N—(CH2)3—CO-Nle-Glu-His-D-Phe-homoArg-Trp-NH2 [Compound 4]

tyrosinase activity, efficacy, % of the control [1]: 166%
Substance: NDP-MSH [reference compound]
